Test system: elastin
Experiment: Elastin synthesis in human dermal fibroblasts (Fastin Elastin Assay)
Type: cell-based
Conditions: 0.01 μg/ml, 48 hours, vs negative control
Experimental: Stimulation of elastin synthesis induced by Ac-L-Asp-L-Val-L-Lys-L-Tyr-OH was evaluated by means of a quantitative method of staining, Fastin Elastin Assay (Tebu-Bio). Human dermal fibroblasts were trypsinized and seeded at a density of 7×10^4 cells/well in 6-well plates. After 72 hours of incubation at 37° C., 5% CO2, with a humidified atmosphere, a new medium was added with 0.01 μg/mL Ac-L-Asp-L-Val-L-Lys-L-Tyr-OH. Untreated cells were used as negative controls and cells treated with TGF-1β (Peprotech) were used as positive controls. The cells were incubated for an additional 48 hours at 37° C., 5% CO2, with humidified atmosphere. Subsequently, the elastin was solubilized and extracted, for which the cells were washed twice with PBS (Sigma) and a solution was added to uncouple the cells (Cell Dissociation Solution, Sigma). The suspension of cells was transferred to centrifuge tubes, 1 M Oxalic Acid was added provided by the kit and they were incubated at 100° C. for 1 hour. Once the elastin became soluble, a calibration curve was prepared with the elastin provided with the kit. From that point, the samples and dilutions of the calibration curve were processed following the kit instructions to isolate and stain the elastin. Lastly, the dye was extracted and the absorbency reading was carried out at a wave length of 540 nm in a TECAN GENios spectrophotometric reader.

Substance: Ac-L-Asp-L-Val-L-Lys-L-Tyr-OH (Ac-DVKY-OH)
- INCREASE IN ELASTIN SYNTHESIS: 21.7%

From US9458194B2, “Compounds useful in the treatment and/or care of the skin and their cosmetic or pharmaceutical compositions” (Lubrizol Advanced Materials, Inc., priority 2013, dated 2016)
